Results taken from patent US8580229B2, “Amyloid imaging as a surrogate marker for efficacy of anti-amyloid therapies” (University of Pittsburgh—of the Commonwealth System of …, priority 2004, dated 2013).

System: amyloid deposition in AD brain (homogenates of frontal, temporal, parietal cortex and cerebellum)
Experiment: [^3H]PIB binding to homogenates of postmortem brain
Set-up: species or system human
Details: AD n=5, control n=4; 1 nM [^3H]PIB
Experimental: To determine whether benzothiazole amyloid imaging probes might be sensitive to changes in brain amyloid deposition caused by an anti-amyloid therapy in general, testing by immunization with AN-1792 was performed. Studies were performed for the binding of {N-methyl-^3H}2-[4′-(methylamino)phenyl]6-hydroxy-benzothiazole ([^3H]PIB) to homogenates of frontal cortex and cerebellum obtained from control subjects (n=4), AD patients (n=5) and from a single AN-1792-treated AD case (in duplicate). See, e.g., Example 9.
This [^11C]PIB retention follows the known topography of amyloid deposition in AD brain (Klunk et al. 2004, Ann. Neurol., 55 (3):306-19). To determine whether the present benzothiazole amyloid imaging probes are sensitive to changes in brain amyloid deposition caused by an anti-amyloid therapy in general, studies were performed for the binding of {N-methyl-^3H}2-[4′-(methylamino)phenyl]6-hydroxy-benzothiazole ([^3H]PIB) to homogenates of postmortem brain from […] AN-1792-treated AD cases. […] An aliquot was submitted for Aβ ELISA and another aliquot was assayed for [^3H]PIB binding after dilution with phosphate-buffered saline (100 mg tissue, incubated with 1 nM [^3H]PIB, filtered, washed and counted to determine bound [^3H]PIB).

Structure (SMILES): [3H]C([3H])([3H])Nc1ccc(-c2nc3ccc(O)cc3s2)cc1 [[^3H]PIB, {N-methyl-^3H}2-[4′-(methylamino)phenyl]6-hydroxy-benzothiazole]
- [^3H]PIB binding to frontal cortex homogenates of AD patients compared to control brain: elevated [^3H]PIB binding compared to control brain
